For 6 molecules, Ki results are on record in patent US8575208B2, “Inhibitors of serine proteases” (priority 2007, dated 2013).

Molecules are shown by their SMILES. pKi: −log10 of the molar value.

This experiment deals with T1, HCV NS3 serine protease (UniProt Q9WMX2).
T1 construct: fused on or other part: Assay 1: C-terminal hexa-histidine tag
T1 sequence (Q9WMX2 1027-1657): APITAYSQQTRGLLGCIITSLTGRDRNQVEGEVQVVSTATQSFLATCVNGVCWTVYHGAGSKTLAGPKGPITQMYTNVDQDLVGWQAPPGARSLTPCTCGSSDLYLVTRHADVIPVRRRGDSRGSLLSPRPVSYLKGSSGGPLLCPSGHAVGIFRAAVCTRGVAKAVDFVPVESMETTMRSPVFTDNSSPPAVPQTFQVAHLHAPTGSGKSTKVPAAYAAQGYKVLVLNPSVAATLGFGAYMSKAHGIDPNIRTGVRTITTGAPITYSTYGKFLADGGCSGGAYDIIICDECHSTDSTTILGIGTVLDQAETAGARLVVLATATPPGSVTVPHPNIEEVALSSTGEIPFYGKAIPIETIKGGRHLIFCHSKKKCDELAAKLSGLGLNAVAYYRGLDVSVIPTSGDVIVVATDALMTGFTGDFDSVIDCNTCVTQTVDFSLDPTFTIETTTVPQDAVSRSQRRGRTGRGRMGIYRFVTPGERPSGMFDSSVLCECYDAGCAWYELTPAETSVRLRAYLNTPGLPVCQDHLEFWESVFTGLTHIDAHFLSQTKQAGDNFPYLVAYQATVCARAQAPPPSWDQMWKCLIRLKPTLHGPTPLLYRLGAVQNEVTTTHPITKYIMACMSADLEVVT
Nature of the experiment: HCV enzymatic assay (HCV NS3 peptide cleavage assays, apparent Ki). The class given is biochemical, hepatitis C virus. The note with it: serine protease activity measured using the HCV Enzyme Assays; Assay No. 1 / Assay No. 2 not given. The method, then: This assay is a modification of that described by Landro, et al. (Landro J A, Raybuck S A, Luong Y C, O'Malley E T, Harbeson S L, Morgenstern K A, Rao G and Livingston D L. Biochemistry 1997, 36, 9340-9348), and uses a peptide substrate (NS5AB), based on the NS5A/NS5B cleavage site for genotype la HCV. The substrate stock solution (25 mM) was prepared in DMSO containing 0.2 M DTT and stored at −20° C. A synthetic peptide cofactor (KK4A) was used as a substitute for the central core region of NS4A. The reaction was performed in a 96-well microtiter plate format using 25 ηM to 50 ηM HCV NS3 protease domain in buffer containing 50 mM HEPES pH 7.8, 100 mM NaCl, 20% glycerol, 5 mM DTT and 25 μM KK4A. The final DMSO concentration was no greater than 2% v/v. Reactions were quenched by addition of trifluoroacetic acid (TFA) to yield a final concentration of 2.5%.
The SMSY product was separated from substrate and KK4A using a microbore separation method. The instrument used was a Agilent 1100 with a G1322A degasser, either a G1312A binary pump or a G1311A quaternary pump, a G1313A autosampler, a G1316A column thermostated chamber and a G1315A diode array detector. The column was a Phenomenex Jupiter, 5 μm C18, 300 Å, 150×2 mm, P/O 00F-4053-B0, with a flow-rate of 0.2 mL/min. The column thermostat was at 40° C. Mobile phases were HPLC grade H2O/0.1% TFA (solvent A) and HPLC grade CH3CN/0.1% TFA (solvent B). The SMSY product peak was quantitated using the data collected at […].
This assay follows the cleavage of a peptide substrate by full-length hepatitis C viral protein NS3•4A. One of three peptide substrates based on the NS5A/NS5B cleavage site for genotype 1a HCV is used to measure enzyme activity. All substrate stock solutions (25 mM) were prepared in DMSO containing 0.2M DTT and stored at −20° C. A synthetic peptide cofactor (NS4A Peptide) was used to supplement NS4A. Peptide sequences are shown below. The hydrolysis reaction was performed in a 96-well microtiter plate format using 100 ηM to 125 ηM HCV NS3•4A in buffer containing 50 mM HEPES pH 7.8, 100 mM NaCl, 20% glycerol, 5 mM DTT and 25 μM NS4A Peptide. The final DMSO concentration was no greater than 2% v/v. Reactions using NS5AB or NS5AB-EDANS as substrate were quenched by the addition of 10% trifluoroacetic acid (TFA) to yield a final TFA concentration of 2.5%. Reactions using FITC-NS5AB-1 as substrate were quenched by the addition of 0.4M formic acid to yield a final concentration of 0.08M acid.
Enzymatic activity was assessed by separation of substrate and products by reverse phase HPLC. The instrument used was a Agilent 1100 with a G1322A degasser, either a G1312A binary pump or a G1311A quaternary pump, a G1313A autosampler, a G1316A column thermostated chamber, a G1321A fluorescence detector and a G1315A diode array detector. The column thermostat was at 40° C. For substrate NS5AB the column was a Phenomenex Jupiter, 5 μm C18, 300 Å, 150×2 mm, P/O 00F-4053-B0, with a flow-rate of 0.2 mL/min using HPLC grade H2O/0.1% TFA (solvent A) and HPLC grade CH3CN/0.1% TFA (solvent B) as mobile phases. The C-terminal product peak (NH2-SMSY-COOH) was quantitated using the absorbance data collected at 210 ηm. For substrate NS5AB-EDANS the column was a Phenomenex Aqua, 5 μm C18, 125 Å, 50×4.6 mm, P/O 00B-4299-E0, with a flow-rate of 1.0 mL/min using HPLC grade H2O/0.1% TFA (solvent A) and HPLC grade CH3CN/0.1% TFA (solvent B) as mobile phases. The C-terminal product peak (NH2-SMSYT-Asp(EDANS)-KKK-COOH) was quantitated using the fluorescence data collected at 350 ηm excitation/490 ηm emission. For substrate FITC-NS5AB-1 the column was a Phenomenex Prodigy, 5 μm ODS(2), 125 Å, 50×4.6 mm, P/O 00B-3300-E0, with a flow-rate of 1.0 mL/min using 10 mM sodium phosphate pH 7.0 in HPLC grade H2O (solvent A) and 65% HPLC Grade CH3CN/35% 10 mM sodium phosphate pH 7.0 in HPLC grade H2O (solvent B) as mobile phases. […]
As for `CCC[C@H](NC(=O)[C@@H]1C[C@]2(CC(=O)N(c3ccccc3)C2)CN1C(=O)[C@@H](NC(=O)OC1CCCC1)C(C)(C)C)C(=O)C(=O)NC1CC1` [compound 4, cyclopentyl (S)-1-((3S,5S)-3-((S)-1-(cyclopropylamino)-1,2-dioxohexan-3-ylcarbamoyl)-8-oxo-7-phenyl-2,7-diazaspiro[4.4]nonan-2-yl)-3,3-dimethyl-1-oxobutan-2-ylcarbamate], the pKi was above 6.39.

Consider `CCC[C@H](NC(=O)[C@@H]1C[C@@]2(CN(c3cccc(Cl)c3)C(=O)O2)CN1C(=O)[C@@H](NC(=O)OC1CCCC1)C(C)(C)C)C(=O)C(=O)NC1CC1` [compound 7, Cyclopentyl (S)-1-((5S,8S)-3-(3-chlorophenyl)-8-((S)-1-(cyclopropylamino)-1,2-dioxohexan-3-ylcarbamoyl)-2-oxo-1-oxa-3,7-diazaspiro[4.4]nonan-7-yl)-3,3-dimethyl-1-oxobutan-2-ylcarbamate], for which the pKi was above 6.39. The result for `CCC[C@H](NC(=O)[C@@H]1C[C@@]2(CC(=O)N(c3ccccc3)C2)CN1C(=O)[C@@H](NC(=O)OC1CCCC1)C(C)(C)C)C(=O)C(=O)NC1CC1` [compound 1, Cyclopentyl-(S)-1-((3S,5R)-3-((S)-1-(cyclopropylamino)-1,2-dioxohexan-3-ylcarbamoyl)-8-oxo-7-phenyl-2,7-diazaspiro[4.4]nonan-2-yl)-3,3-dimethyl-1-oxobutan-2-ylcarbamate] reads 6.15 to 6.39; that for `CCC[C@H](NC(=O)[C@@H]1C[C@]2(CC(=O)N(c3cccc(Cl)c3)C2)CN1C(=O)[C@@H](NC(=O)CC1CCCCC1)C(C)(C)C)C(=O)C(=O)NC1CC1` [compound 6], 6.15 to 6.39; that for `CCC[C@H](NC(=O)[C@@H]1C[C@]2(CN(c3ccccc3)C(=O)O2)CN1C(=O)[C@@H](NC(=O)CC1CCCCC1)C(C)(C)C)C(=O)C(=O)NC1CC1` [compound 5, (5R,8S)-7-((S)-2-(2-cyclohexylacetamido)-3,3-dimethylbutanoyl)-N-((S)-1-(cyclopropylamino)-1,2-dioxohexan-3-yl)-2-oxo-3-phenyl-1-oxa-3,7-diazaspiro[4.4]nonane-8-carboxamide], below 6.15. The result for `CCC[C@H](NC(=O)[C@@H]1C[C@@]2(CC(=O)N(c3cccc(Cl)c3)C2)CN1C(=O)[C@@H](NC(=O)CC1CCCCC1)C(C)(C)C)C(=O)C(=O)NC1CC1` [compound 2] reads below 6.15.

As usually defined, the pKi is the Ki on a negative log10 scale, so that one unit is a factor of ten.
